Measurements published in patent US12110284B2, “Fasoracetam crystalline forms” (The Children's Hospital of Philadelphia, priority 2018, dated 2024).
Read-outs that look alike come from different tables or passages of the source.

How the values were obtained:
[1] = assay type: physicochemical; settings: for first onset of weight loss / weight loss continues up to / water loss (initial weight loss): TGA; for first onset of weight loss / weight loss continues up to: nitrogen flow; for water loss (initial weight loss): equivalents of water
Description: TGA measurements were carried out on a METTLER TOLEDO TGA/SDTA 851e. Samples were placed in open aluminum oxide crucible. All experiments were performed under nitrogen flow.
A thermal analysis of all forms was performed in order to characterize the fasoracetam forms and to identify the stability of different forms. TGA measurements (FIG. 21) clearly mark the difference between the hydrated and anhydrated form. […] The weight loss continues up to 185° C. When the temperature is increased further, degradation occurs, starting around 260° C. The initial loss corresponds to 1.1 equivalent of water, as expected for a 1:1 stoichiometric hydrate. The slight deviation from the ideal stoichiometric ratio can be attributed to the crystallization conditions (the bulk material was obtained from an aqueous solution and the water remaining on the crystal surface or trapped between crystals is likely to cause the deviation observed). […] Analogous to Form I, degradation occurs which starts around 268° C. The observed water loss here is 0.9 equivalent, which is expected for a stoichiometric hydrate.

[2] = DSC enthalpy of fusion of fasoracetam forms; assay type: physicochemical
Description: DSC measurements were performed on a DSC 821 METTLER TOLEDO under continuous nitrogen flow. Perforated aluminium crucibles were used for analysis. Onsets were determined by manually constructing a tangent to the peak and a prolongation of the baseline. Total enthalpies were calculated by manual peak integration using a linear interpolation between the initial and final temperatures of integration. To obtain the normalized enthalpy, the total enthalpy was divided by the total sample mass. Ramp rates were typically done at 5° C./minute Using Burger's Heat of Fusion rule for both hydrated forms (Table 6), they should be monotropically related. Because both hydrates were obtained from different solvents (water and methanol for Forms I and II, respectively), a slurrying experiment where both vials were seeded with the opposite hydrate was performed and left under these conditions for 1 week.

[3] = Slurrying experiment of both hydrates seeded with the opposite hydrate, XRPD analysis; assay type: physicochemical; settings: water and methanol slurries seeded with the opposite hydrate, 1 week
Description: Using Burger's Heat of Fusion rule for both hydrated forms (Table 6), they should be monotropically related. Because both hydrates were obtained from different solvents (water and methanol for Forms I and II, respectively), a slurrying experiment where both vials were seeded with the opposite hydrate was performed and left under these conditions for 1 week.

[4] = Hygroscopicity of the solid form; assay type: physicochemical
Description: In further embodiments of the disclosure, R-fasoracetam anhydrate is provided. […] This lack of water of crystallization is a characterizing feature of the anhydrate of R-fasoracetam with respect to Form I or Form II. FIG. 13 is an XRPD pattern of the anhydrate and any one or more of the peaks in that XRPD pattern may be used to characterize the anhydrate. Thus, one or more peaks at about 8.9°2θ, about 13.1°2θ, about 15.2°2θ, about 17.8°2θ, about 18.7°2θ, about 20.3°2θ, and about 22.7°2⊖ may be used to characterize the anhydrate form of R-fasoracetam. The anhydrate has an onset melting temperature at about 94° C. Thus, in another embodiment, an onset melting point of about 94° C. together with one or more peaks at about 8.9°2θ, about 13.1°2θ, about 15.2°2θ, about 17.8°2θ, about 18.7°2θ, about 20.3°2θ, and about 22.7°2⊖ may be used to characterize R-fasoracetam anhydrate. R-fasoracetam anhydrate may be further characterized by a diffraction pattern substantially the same as that of FIG. 13. A DSC thermogram of R-fasoracetam anhydrate appears in FIG. 25. The ramp rate was at 10° C. per minute. The R-fasoracetam anhydrate being hygroscopic, the sample in FIG. 25 was obtained by keeping R-fasoracetam monohydrate Form I under vacuum for a prolonged period at a temperature of 65° C.

[5] = Storage of the anhydrate at ambient conditions, conversion tracked daily via XRPD; assay type: physicochemical; settings: 1-week period
[6] = test system: mGluRs; settings: in vitro; cited from earlier work
[7] = cited from earlier work

SMILES: O=C1CC[C@H](C(=O)N2CCCCC2)N1 [Form I, R-fasoracetam monohydrate Form I, reference compound]
- degradation starts [1]: around 260 °C
- first onset of weight loss [1]: 41 °C
- weight loss continues up to [1]: 185 °C
- water loss (initial weight loss) [1]: 1.1 equivalent
- Enthalpy of Fusion (ΔHfus, J/g) ([2]; listed as Fasoracetam hydrate I): -120.9 J/g

SMILES: O=C1CC[C@H](C(=O)N2CCCCC2)N1 [Form II, R-fasoracetam monohydrate Form II]
- degradation starts [1]: around 268 °C
- first onset of weight loss [1]: 41 °C
- weight loss continues up to [1]: 183 °C
- water loss (initial weight loss) [1]: 0.9 equivalent
- Enthalpy of Fusion (ΔHfus, J/g) ([2]; listed as Fasoracetam hydrate II): -79.0 J/g
- solid form stability in slurry [3]: complete solution mediated polymorphic transition from Form II to Form I

SMILES: O=C1CC[C@H](C(=O)N2CCCCC2)N1 [anhydrate, R-fasoracetam anhydrate]
- degradation starts [1]: around 260 °C
- first onset of weight loss [1]: no particular weight loss up until degradation
- hygroscopicity [4]: hygroscopic
- conversion of solid form on storage [5]: conversion to the stable hydrate occurs at ambient conditions over a 1-week period
- Enthalpy of Fusion (ΔHfus, J/g) [2]: -76.7 J/g

SMILES: O=C1CC[C@H](C(=O)N2CCCCC2)N1 [fasoracetam, R-fasoracetam]
- activity against mGluRs [6]: nonselective activator against all classes of mGluRs
- treatment of further disorders ([7]; subjects having ADHD and 22q11.2 Deletion Syndrome, anxiety, conduct disorder, Tourette's syndrome): successful
- treatment of ADHD ([7]; subjects having a genetic alteration in an mGluR network gene, clinical trial): successfully treated
